Reference: patent publication US4350699A, “Pyridylalkoxysulfinyl derivatives of carbamate esters” (priority 1981, dated 1982)

Tests used:
[1] = system: House Flies; details: for toxicity against house flies (in words): judged from LD50 of Table I; for House Flies LD50: topical on the notum, 1 μl acetone solution, 24 hours
Experimental: (§1) Representative compounds of the pyridylalkoxysulfinyl derivatives of carbamate esters of the invention were tested for insecticidal activity against house flies and tobacco cutworms, and for mammalian toxicity against mice.
In the test for houseflies, stock 1% concentrated solutions of each of the test compounds and the commercially related carbamate ester insecticide, methomyl, were made in acetone, and such solutions were diluted with acetone to a concentration of 0.001-0.1%. House flies were treated topically on the notum by 1 μl of each of the diluted acetone solutions and percent mortality was counted 24 hours after application.

[2] = system: tobacco cutworms; test: test against tobacco cutworms (3rd instar larvae), cabbage leaf dip, mortality counted 72 hours after the treatment; assay type: in vivo; details: for mortality at 100 ppm / mortality at 500 ppm: foliar, leaf dip, 72 hours
Experimental: In the test against tobacco cutworms, aqueous solutions containing each toxicant at 100 and 500 ppm and an emulsifying agent, Shingramin, at 0.03% were prepared. The composition of Shingramin is understood to consist of 20% of polyoxyethylene dodecyl ether and polyoxyethylene alkylaryl ether, 12% ligninsulfonates and 68% inert solvents, by weight. A cabbage leaf was dipped into each of these solutions for 30 seconds, and put in a paper cup of 8 cm diameter. Ten tobacco cutworms (3rd instar larvae) were released onto the leaf. Two leaves were used for each dilution. Mortality of the insects was counted 72 hours after the treatment.

[3] = in vivo; details: mouse, in vivo, po
Experimental: as §1
(§2) Mammalian toxicity was determined against Swiss white mice. The test compound was applied orally using propylene glycol as the carrier.

[4] = system: Mice; test: in vivo; details: compared with parent carbamate (methomyl or MIP)
Experimental: as §1, §2

| Compound | toxicity against house flies (in words) [1] | House Flies LD50 [1] | potency for tobacco cutworms (in words) ([2]; compared with methomyl) | mortality at 100 ppm [2] | mortality at 500 ppm [2] | LD50 [3] | mammalian toxicity (in words) [4] |
| --- | --- | --- | --- | --- | --- | --- | --- |
| CSC(C)=NOC(=O)N(C)S(=O)OCc1ccccn1 (stereo not shown) [I, S-methyl N-[N'-methyl-N'-(2-pyridylmethoxy)-sulfinylcarbamoyloxy] thioacetimidate] | good toxicity | 7.0 µg/g | not as potent as methomyl | 5% | 65% | 85 mg/kg | low |
| CSC(C)=NOC(=O)N(C)S(=O)OCc1cccnc1 (stereo not shown) [III, S-methyl N-[N'-methyl-N'-(3-pyridylmethoxy)sulfinylcarbamoyloxy]-thioacetimidate] | good toxicity | 5.8 µg/g |  | 85% | 100% | 96 mg/kg | low |
| CC(C)c1cccc(OC(=O)N(C)S(=O)OCc2ccccn2)c1 (stereo not shown) [IX, 3-Isopropylphenyl N-(2-pyridylmethoxysulfinyl)-N-methylcarbamate] | good toxicity | 111.5 µg/g |  |  |  | 105 mg/kg | substantially lower mammalian toxicity |
| CNC(=O)Oc1cccc(C(C)C)c1 [MIP, reference compound] |  |  |  |  |  |  | much higher mammalian toxicity |
| CNC(=O)ON=C(C)SC [methomyl, reference compound] |  | 3.7 µg/g |  | 100% | 100% |  | much higher toxicity |
